Patent US20230241243A1, “CARRIER PARTICLE-DRUG CONJUGATES, SELF-IMMOLATIVE LINKERS, AND USES THEREOF” (priority 2020, published 2023)
Structures can show the parent of a compound that is named as a salt. Where two headings read alike, the source gives them in different places.

Columns and labels:
KB cell line = conditions: read-out: IC50 in KB cell line (++++); FA ligands per particle 12-22; linker-drug conjugates per particle 17-25
Experimental: The in vitro cytotoxicity of the NDCs disclosed herein were tested in cancer cells. The cancer cells were cultured in folic acid-free medium (RPMI1640, ThermoFisher, GIBCO) for at least one week before the study. Cells were plated in opaque 96-well plates at a density of 3×10^3 cells per well (total of […]) and allowed to attach overnight. The following day, cells were treated with NDC (FA-CDC) prepared using the linker-payload conjugate precursor compound 202 (Example 33), at a concentration range of 0-50 nM (0, 0.001, 0.005, 0.01, 0.05, 0.1, 0.5, 1, 5, 10, 50 nM) by adding […] of 10x stock FA-CDC Solution.
Cells were treated for a pre-defined exposure time (depending on the study design, e.g., 4-6 hours, or 7 days). In the case of short-exposure-time viability study, cancer cells in each wells were washed with […] PBS and refreshed with […] of cell medium. After washing, the plates were returned back to 37° C. incubator for 7 days before the viability assay. In the case of 7-day-exposure-time viability study, no additional washing step was performed. After 7 days, the cell viability was assessed using the CellTiter-Glo2.0 assay (Promega) according to manufacturer's instructions. Data for both viability and proliferation were plotted using Prism7 software (GraphPad).

[1] = Drug-release assay of nanoparticle-conjugated linker-payloads under cleavage conditions (Cat-B, redox-responsive or pH-sensitive cleaving study), RP-HPLC; assay type: in vitro ADME; conditions: linker-payload conjugated to DBCO-functionalized silica nanoparticle, 37° C., 24 hours
How it was run: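 Azide linker-drugs were click-conjugated to DBCO-functionalized ultrasmall silica nanoparticles and incubated under cleavage conditions, e.g., Cat-B in 25 mM MES, 5 mM DTT, pH 5.0. Released versus non-released drug was quantified by C18 RP-HPLC peak area. Gradients were 0.01% TFA water/acetonitrile for protease/redox linkers and water/acetonitrile for pH-sensitive linkers.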

Human KB cells = assay: Cell viability assay of payloads (CellTiter-Glo 2.0); assay type: cell-based; conditions: 168 h, read-out: IC50 values (diluted in RPMI medium)
Experimental: Method: Human KB cells (ATCC® CCL-17™) were cultured in folic acid free rpmi-1640 medium (ThermoFisher, GIBCO) for at least 7 days before the study. The cells were seeded in opaque 96-well plates and allowed to attach overnight (cell density was carefully controlled to be 3,000 cells per well at the time of assay). After that, cells were treated with drug analogs (suspended in the same RPMI-1640 medium) at a concentration of zero to 1,000 nM. After 7 days, cell viability was assessed using the CellTiter-Glo® 2.0 assay (Promega) according to the manufacturer's instructions. The percent of viable cells at each concentration was calculated by normalizing the luminescence values to the untreated control. The half-maximal inhibitory concentration (IC50) of the payloads were plotted and fitted by using the Prism 8 software (GraphPad). Table 2 provides the IC50 of the payloads of the present disclosure (‘+’ indicates 1-9.9 nm; ‘++’ indicates 10-100 nm).

With CC[C@@]1(O)C(=O)OCc2c1cc1n(c2=O)Cc2c-1nc1cc(F)c(C)c3c1c2[C@@H](NC(=O)C(O)c1ccc(NC(=O)[C@H](CCCNC(N)=O)NC(=O)[C@@H](NC(=O)CCOCCOCCOCCOCCOCCOCCN=[N+]=[N-])C(C)C)cc1)CC3 (stereo partly drawn) [Example 18, 1-azido-N-((2S)-1-(((2S)-1-((4-(2-(((1S,9S)-9-ethyl-5-fluoro-9-hydroxy-4-methyl-10,13-dioxo-2,3,9,10,13,15-hexahydro-1H,12H-benzo[de]pyrano[3′,4′:6,7]indolizino[1,2-b]quinolin-1-yl)amino)-1-hydroxy-2-oxoethyl)phenyl)amino)-1-oxo-5-ureidopentan-2-yl)amino)-3-methyl-1-oxobutan-2-yl)-3,6,9,12,15,18-hexaoxahenicosan-21-amide] the IC50 (KB cell line) was 17.5 nM and the “% of Payload Release in 24 Hours Under Cleavage Conditions” value (from here on “% of Payload Release”) [1] was “+++ (‘+++’ indicates 51-75% release)”.
In the case of CC[C@@]1(O)C(=O)OCc2c1cc1n(c2=O)Cc2c-1nc1cc(F)c(C)c3c1c2[C@@H](NC(=O)OCc1c(F)cc(NC(=O)[C@H](CCCNC(N)=O)NC(=O)[C@@H](NC(=O)CCOCCOCCOCCOCCOCCOCCOCCOCCOCCN=[N+]=[N-])C(C)C)cc1F)CC3 (single isomer, unassigned) [Example 27, 4-((32s,35s)-1-azido-32-isopropyl-30,33-dioxo-35-(3-ureidopropyl)-3,6,9,12,15,18,21,24,27-nonaoxa-31,34-diazahexatriacontan-36-amido)-2,6-difluorobenzyl ((1s,9s)-9-ethyl-5-fluoro-9-hydroxy-4-methyl-10,13-dioxo-2,3,9,10,13,15-hexahydro-1H,12H-benzo[de]pyrano[3′,4′:6,7]indolizino[1,2-b]quinolin-1-yl)carbamate], the IC50 (KB cell line) is reported as 5.2 nM and the “% of Payload Release” value [1] is reported as “++++ (‘++++’ indicates 76-100% release)”.
CC[C@@]1(O)C(=O)OCc2c1cc1n(c2=O)Cc2c-1nc1cc(F)c(C)c3c1c2[C@@H](NC(=O)C(O)c1ccc(N)cc1)CC3 (stereo partly drawn) [Example 458, 2-(4-aminophenyl)-N-((1S,9S)-9-ethyl-5-fluoro-9-hydroxy-4-methyl-10,13-dioxo-2,3,9,10,13,15-hexahydro-1H,12H-benzo[de]pyrano[3′,4′:6,7]indolizino[1,2-b]quinolin-1-yl)-2-hydroxyacetamide] gave an IC50 (Human KB cells; Homo sapiens, KB) of 1 to 9.9 nM.
CCc1c2c(nc3ccc(Oc4nc(Cl)nc(NCCSSCCN)n4)cc13)-c1cc3c(c(=O)n1C2)COC(=O)[C@]3(O)CC [Example 463, (S)-9-((4-((2-((2-aminoethyl)disulfaneyl)ethyl)amino)-6-chloro-1,3,5-triazin-2-yl)oxy)-4,11-diethyl-4-hydroxy-1,12-dihydro-14H-pyrano[3′,4′:6,7]indolizino[1,2-b]quinoline-3,14(4H)-dione] gave an IC50 (Human KB cells; Human KB cells, 7 days treatment, 0-1,000 nM) of 10 to 100 nM.
CCc1c2c(nc3ccc(OCCCN)cc13)-c1cc3c(c(=O)n1C2)COC(=O)[C@]3(O)CC [Example 105] gave an IC50 (Human KB cells; Homo sapiens, KB) of 1 to 9.9 nM.
CC[C@@]1(O)C(=O)OCc2c1cc1n(c2=O)Cc2c-1nc1cc(F)c(C)c3c1c2[C@@H](Nc1nc(Cl)nc(NCCSSC(C)(C)CN)n1)CC3 [Example 377, (1S,9S)-1-((4-((2-((1-amino-2-methylpropan-2-yl)disulfaneyl)ethyl)amino)-6-chloro-1,3,5-triazin-2-yl)amino)-9-ethyl-5-fluoro-9-hydroxy-4-methyl-1,2,3,9,12,15-hexahydro-10H,13H-benzo[de]pyrano[3′,4′:6,7]indolizino[1,2-b]quinoline-10,13-dione 2,2,2-trifluoroacetate] showed an IC50 (Human KB cells; Homo sapiens, KB) of 10 to 100 nM.
With CCc1c2c(nc3ccc(OCC(=O)N/N=C(\C)c4ccc(OCCCCOCCOCCOCCOCCOCCOCCN=[N+]=[N-])cc4)cc13)-c1cc3c(c(=O)n1C2)COC(=O)[C@]3(O)CC [Example 75, (S,E)-N′-(1-(4-((1-azido-3,6,9,12,15,18-hexaoxadocosan-22-yl)oxy)phenyl)ethylidene)-2-((4,11-diethyl-4-hydroxy-3,14-dioxo-3,4,12,14-tetrahydro-1H-pyrano[3′,4′:6,7]indolizino[1,2-b]quinolin-9-yl)oxy)acetohydrazide] the IC50 (KB cell line) was 42.7 nM.
With CCc1c2c(nc3ccc(OCCCNC(=O)OCc4ccc(NC(=O)[C@H](CCCCN)NC(=O)[C@H](Cc5ccccc5)NC(=O)CCOCCOCCOCCOCCOCCOCCOCCOCCOCCN=[N+]=[N-])cc4)cc13)-c1cc3c(c(=O)n1C2)COC(=O)[C@]3(O)CC [Example 28, 4-((32S,35S)-35-(4-aminobutyl)-1-azido-32-benzyl-30,33-dioxo-3,6,9,12,15,18,21,24,27-nonaoxa-31,34-diazahexatriacontan-36-amido)benzyl (3-(((S)-4,11-diethyl-4-hydroxy-3,14-dioxo-3,4,12,14-tetrahydro-1H-pyrano[3′,4′:6,7]indolizino[1,2-b]quinolin-9-yl)oxy)propyl)carbamate] the IC50 (KB cell line) was 72.2 nM and the “% of Payload Release” value [1] was “+++ (‘+++’ indicates 51-75% release)”.
With CC[C@@]1(O)C(=O)OCc2c1cc1n(c2=O)Cc2c-1nc1cc(F)c(C)c3c1c2[C@@H](NC(=O)CSSC(C)(C)CN)CC3 [Example 454, 2-((1-amino-2-methylpropan-2-yl)disulfaneyl)-N-((1S,9S)-9-ethyl-5-fluoro-9-hydroxy-4-methyl-10,13-dioxo-2,3,9,10,13,15-hexahydro-1H,12H-benzo[de]pyrano[3′,4′:6,7]indolizino[1,2-b]quinolin-1-yl)acetamide 2,2,2-trifluoroacetic acid salt] the IC50 (Human KB cells; Homo sapiens, KB) was 10 to 100 nM.
Molecule CC[C@]1(O)C(=O)OCc2c1cc1n(c2=O)Cc2c-1nc1cc(F)c(C)c3c1c2[C@H](NC(=O)C(C)(C)C(=O)NN)CC3 [Example 410, N-((1R,9R)-9-ethyl-5-fluoro-9-hydroxy-4-methyl-10,13-dioxo-2,3,9,10,13,15-hexahydro-1H,12H-benzo[de]pyrano[3′,4′:6,7]indolizino[1,2-b]quinolin-1-yl)-3-hydrazineyl-2,2-dimethyl-3-oxopropanamide] has an IC50 (Human KB cells; Homo sapiens, KB) of 10 to 100 nM.
CCc1c2c(nc3ccc(OCCCSSC(C)(C)CN)cc13)-c1cc3c(c(=O)n1C2)COC(=O)[C@]3(O)CC [Example 331] showed an IC50 (Human KB cells; Homo sapiens, KB) of 10 to 100 nM.
Molecule CCc1c2c(nc3ccc(OCC(=O)NN)cc13)-c1cc3c(c(=O)n1C2)COC(=O)[C@]3(O)CC [Example 385, (S)-2-((4,11-diethyl-4-hydroxy-3,14-dioxo-3,4,12,14-tetrahydro-1H-pyrano[3′,4′:6,7]indolizino[1,2-b]quinolin-9-yl)oxy)acetohydrazide] has an IC50 (Human KB cells; Homo sapiens, KB) of 10 to 100 nM.
Work on CCc1c2c(nc3ccc(OCCCSC(C)=O)cc13)-c1cc3c(c(=O)n1C2)COC(=O)[C@]3(O)CC [Example 327] yielded an IC50 (Human KB cells; Homo sapiens, KB) of 10 to 100 nM.
CCc1c2c(nc3ccc(OC(C)(C)C(=O)NN)cc13)-c1cc3c(c(=O)n1C2)COC(=O)[C@]3(O)CC [Example 422, (S)-2-((4,11-diethyl-4-hydroxy-3,14-dioxo-3,4,12,14-tetrahydro-1H-pyrano[3′,4′:6,7]indolizino[1,2-b]quinolin-9-yl)oxy)-2-methylpropanehydrazide] showed an IC50 (Human KB cells; Homo sapiens, KB) of 10 to 100 nM.
CC[C@@]1(O)C(=O)OCc2c1cc1n(c2=O)Cc2c-1nc1cc(F)c(C)c3c1c2[C@@H](NC(=O)CS)CC3 [Example 452, N-((1S,9S)-9-ethyl-5-fluoro-9-hydroxy-4-methyl-10,13-dioxo-2,3,9,10,13,15-hexahydro-1H,12H-benzo[de]pyrano[3′,4′:6,7]indolizino[1,2-b]quinolin-1-yl)-2-mercaptoacetamide] gave an IC50 (Human KB cells; Homo sapiens, KB) of 10 to 100 nM.
For CC[C@@]1(O)C(=O)OCc2c1cc1n(c2=O)Cc2c-1nc1cc(F)c(C)c3c1c2[C@@H](NC(=O)OCc1ccc(SSC(C)(C)CNC(=O)CCOCCOCCOCCOCCOCCOCCOCCOCCOCCN=[N+]=[N-])cc1)CC3 [Example 58, 4-((1-azido-33-methyl-30-oxo-3,6,9,12,15,18,21,24,27-nonaoxa-31-azatetratriacontan-33-yl)disulfanyl)benzyl ((1S,9S)-9-ethyl-5-fluoro-9-hydroxy-4-methyl-10,13-dioxo-2,3,9,10,13,15-hexahydro-1H,12H-benzo[de]pyrano[3′,4′:6,7]indolizino[1,2-b]quinolin-1-yl)carbamate], the IC50 (KB cell line) was 49.4 nM and the “% of Payload Release” value [1] was “++++ (‘++++’ indicates 76-100% release)”.
